Results reported in ChEMBL document CHEMBL1909294, “Translating clinical findings into knowledge in drug safety evaluation--drug induced liver injury prediction system (DILIps)” (PLoS Comput Biol, 2011).
Where a SMILES comes first, the peptide text is derived from it. Bridges are numbered along the chain shown (N, C = ends). [ ]: non-standard residue; d: D form. hArg = N=C(N)NCCCC[C@H](N)C(=O)O; Mpa = O=C(O)CCS

Experiments:
Hepatotoxicity [1] = tested on: Hepatotoxicity;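 on HepSE cholecystitis: Cholecystitis-related hepatic side effect score drawn from the DILIps (drug-induced liver injury prediction) training data set; call rule not given here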;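 on HepSE cirrhosis: cirrhosis hepatic side effect score taken from the DILIps (drug-induced liver injury prediction) training set; call rule not given here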;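 on HepSE elevated liver function tests: hepatic side effect score for raised liver function tests, as recorded in the DILIps training set used for predicting drug-induced liver injury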; on HepSE hepatic failure: call rule not given here;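 on HepSE hepatic necrosis: score of hepatic side effects for hepatic necrosis, drawn from the training data of DILIps, a prediction system for drug-induced liver injury; call rule not given here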;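 on HepSE jaundice: Jaundice-related hepatic side-effect score drawn from the training data of the DILIps (drug-induced liver injury prediction system); call rule not given here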; on HepSE liver disease: call rule not given here
Hepatotoxicity [2] = tested on: Hepatotoxicity; remark: listed apart in the source;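 on HepSE cholecystitis: Cholecystitis-related hepatic side effect score drawn from the DILIps (drug-induced liver injury prediction) training data set; call rule not given here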;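 on HepSE cirrhosis: cirrhosis hepatic side effect score taken from the DILIps (drug-induced liver injury prediction) training set; call rule not given here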;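 on HepSE elevated liver function tests: hepatic side effect score for raised liver function tests, as recorded in the DILIps training set used for predicting drug-induced liver injury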; on HepSE hepatic failure: call rule not given here;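 on HepSE hepatic necrosis: score of hepatic side effects for hepatic necrosis, drawn from the training data of DILIps, a prediction system for drug-induced liver injury; call rule not given here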;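 on HepSE jaundice: Jaundice-related hepatic side-effect score drawn from the training data of the DILIps (drug-induced liver injury prediction system); call rule not given here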; on HepSE liver disease: call rule not given here
Hepatotoxicity [3] = tested on: Hepatotoxicity; remark: listed apart in the source;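 on HepSE cholecystitis: Cholecystitis-related hepatic side effect score drawn from the DILIps (drug-induced liver injury prediction) training data set; call rule not given here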;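 on HepSE cirrhosis: cirrhosis hepatic side effect score taken from the DILIps (drug-induced liver injury prediction) training set; call rule not given here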;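 on HepSE elevated liver function tests: hepatic side effect score for raised liver function tests, as recorded in the DILIps training set used for predicting drug-induced liver injury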; on HepSE hepatic failure: call rule not given here;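 on HepSE hepatic necrosis: score of hepatic side effects for hepatic necrosis, drawn from the training data of DILIps, a prediction system for drug-induced liver injury; call rule not given here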;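 on HepSE jaundice: Jaundice-related hepatic side-effect score drawn from the training data of the DILIps (drug-induced liver injury prediction system); call rule not given here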; on HepSE liver disease: call rule not given here
Hepatotoxicity [4] = tested on: Hepatotoxicity; remark: listed apart in the source;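 on HepSE cirrhosis: cirrhosis hepatic side effect score taken from the DILIps (drug-induced liver injury prediction) training set; call rule not given here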;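 on HepSE elevated liver function tests: hepatic side effect score for raised liver function tests, as recorded in the DILIps training set used for predicting drug-induced liver injury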; on HepSE hepatic failure: call rule not given here;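 on HepSE hepatic necrosis: score of hepatic side effects for hepatic necrosis, drawn from the training data of DILIps, a prediction system for drug-induced liver injury; call rule not given here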;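 on HepSE jaundice: Jaundice-related hepatic side-effect score drawn from the training data of the DILIps (drug-induced liver injury prediction system); call rule not given here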; on HepSE liver disease: call rule not given here
Hepatotoxicity [5] = tested on: Hepatotoxicity; remark: listed apart in the source; on HepSE hepatic failure: call rule not given here; on HepSE liver disease: call rule not given here
Hepatotoxicity [6] = tested on: Hepatotoxicity; remark: listed apart in the source; on HepSE hepatic failure: call rule not given here; on HepSE liver disease: call rule not given here
Hepatotoxicity [7] = tested on: Hepatotoxicity; remark: listed apart in the source
Hepatotoxicity [8] = tested on: Hepatotoxicity; remark: listed apart in the source
Hepatotoxicity [9] = tested on: Hepatotoxicity; remark: listed apart in the source
Hepatotoxicity [10] = tested on: Hepatotoxicity; remark: listed apart in the source
Hepatotoxicity [11] = tested on: Hepatotoxicity; remark: listed apart in the source
Hepatotoxicity [12] = tested on: Hepatotoxicity; remark: listed apart in the source
Hepatotoxicity [13] = tested on: Hepatotoxicity; remark: listed apart in the source
Hepatotoxicity [14] = tested on: Hepatotoxicity; remark: listed apart in the source

Molecule	HepSE_elevated liver function tests (Hepatotoxicity [1])	HepSE_hepatic failure (Hepatotoxicity [2])	HepSE_cirrhosis (Hepatotoxicity [3])	HepSE_hepatic necrosis (Hepatotoxicity [4])	HepSE_jaundice (Hepatotoxicity [5])	HepSE_liver disease (Hepatotoxicity [6])	HepSE_cholecystitis (Hepatotoxicity [7])	HepSE_cholelithiasis (Hepatotoxicity [8])	HepSE_Combined Scores (Hepatotoxicity [9])	HepSE_hepatomegaly (Hepatotoxicity [10])	HepSE_bilirubinemia (Hepatotoxicity [11])	HepSE_liver function tests abnormal (Hepatotoxicity [12])	HepSE_hepatitis (Hepatotoxicity [13])	HepSE_liver fatty (Hepatotoxicity [14])	further results
O=C1NC(=O)C(c2ccccc2)(c2ccccc2)N1 [PHENYTOIN]															HepSE_elevated liver function tests (Hepatotoxicity [1]; Liver): 0; HepSE_hepatic failure (Hepatotoxicity [2]; Liver): 0; HepSE_cirrhosis (Hepatotoxicity [3]; Liver): 0; HepSE_hepatic necrosis (Hepatotoxicity [4]; Liver): 0; HepSE_jaundice (Hepatotoxicity [5]; Liver): 0; HepSE_liver disease (Hepatotoxicity [6]; Liver): 0; HepSE_cholecystitis (Hepatotoxicity [7]; Liver): 0; HepSE_cholelithiasis (Hepatotoxicity [8]; Liver): 0; HepSE_Combined Scores (Hepatotoxicity [9]; Liver): 1; HepSE_hepatomegaly (Hepatotoxicity [10]; Liver): 0; HepSE_bilirubinemia (Hepatotoxicity [11]; Liver): 0; HepSE_liver function tests abnormal (Hepatotoxicity [12]; Liver): 0; HepSE_hepatitis (Hepatotoxicity [13]; Liver): 1; HepSE_liver fatty (Hepatotoxicity [14]; Liver): 0
c1cnc2cc3c(cc2n1)[C@@H]1CNC[C@H]3C1 [VARENICLINE]	0	0	0	0	0	0	0	0	1	0	0	1	0	0	
Clc1ccc(CCC(Cn2ccnc2)Sc2c(Cl)cccc2Cl)cc1 (configuration not stated) [BUTOCONAZOLE]	0	0	0	0	0	0	0	0	0	0	0	0	0	0	
CC(=O)N(CC(O)CO)c1c(I)c(C(=O)NCC(O)CO)c(I)c(C(=O)NCC(O)CO)c1I (configuration not stated) [IOHEXOL]	0	0	0	0	0	0	0	0	0	0	0	0	0	0	
[Li] [LITHIUM]	0	0	0	0	0	0	0	0	0	0	0	0	0	0	
N=C(N)NCCCC[C@@H]1NC(=O)CCSSC[C@@H](C(N)=O)NC(=O)[C@@H]2CCCN2C(=O)[C@H](Cc2c[nH]c3ccccc23)NC(=O)[C@H](CC(=O)O)NC(=O)CNC1=O [EPTIFIBATIDE] ([Mpa][hArg]GDWPC-NH2; disulfide 1-7)	0	0	0	0	0	0	0	0	0	0	0	0	0	0	
COCC1=C(C(=O)O)N2C(=O)[C@@H](NC(=O)/C(=N\OC)c3csc(N)n3)[C@H]2SC1 [CEFPODOXIME]	0	0	0	0	0	0	0	0	0	0	0	0	0	0	
O=C([O-])O.[Na+] [SODIUM BICARBONATE]															HepSE_elevated liver function tests (Hepatotoxicity [1]; Liver): 0; HepSE_hepatic failure (Hepatotoxicity [2]; Liver): 0; HepSE_cirrhosis (Hepatotoxicity [3]; Liver): 0; HepSE_hepatic necrosis (Hepatotoxicity [4]; Liver): 0; HepSE_jaundice (Hepatotoxicity [5]; Liver): 0; HepSE_liver disease (Hepatotoxicity [6]; Liver): 0; HepSE_cholecystitis (Hepatotoxicity [7]; Liver): 0; HepSE_cholelithiasis (Hepatotoxicity [8]; Liver): 0; HepSE_Combined Scores (Hepatotoxicity [9]; Liver): 0; HepSE_hepatomegaly (Hepatotoxicity [10]; Liver): 0; HepSE_bilirubinemia (Hepatotoxicity [11]; Liver): 0; HepSE_liver function tests abnormal (Hepatotoxicity [12]; Liver): 0; HepSE_hepatitis (Hepatotoxicity [13]; Liver): 0; HepSE_liver fatty (Hepatotoxicity [14]; Liver): 0
Cc1nnc2n1-c1ccc(Cl)cc1C(c1ccccc1Cl)=NC2 [TRIAZOLAM]	0	1	0	0	1	0	0	0	2	0	0	0	0	0	
CCOc1nc2cccc(C(=O)O)c2n1Cc1ccc(-c2ccccc2-c2nnn[nH]2)cc1	0	0	0	0	0	0	0	1	2	0	0	0	1	0	
O=P(O)(O)O [PHOSPHORIC ACID]															HepSE_elevated liver function tests (Hepatotoxicity [1]; Liver): 0; HepSE_hepatic failure (Hepatotoxicity [2]; Liver): 0; HepSE_cirrhosis (Hepatotoxicity [3]; Liver): 0; HepSE_hepatic necrosis (Hepatotoxicity [4]; Liver): 0; HepSE_jaundice (Hepatotoxicity [5]; Liver): 0; HepSE_liver disease (Hepatotoxicity [6]; Liver): 0; HepSE_cholecystitis (Hepatotoxicity [7]; Liver): 0; HepSE_cholelithiasis (Hepatotoxicity [8]; Liver): 0; HepSE_Combined Scores (Hepatotoxicity [9]; Liver): 0; HepSE_hepatomegaly (Hepatotoxicity [10]; Liver): 0; HepSE_bilirubinemia (Hepatotoxicity [11]; Liver): 0; HepSE_liver function tests abnormal (Hepatotoxicity [12]; Liver): 0; HepSE_hepatitis (Hepatotoxicity [13]; Liver): 0; HepSE_liver fatty (Hepatotoxicity [14]; Liver): 0
N[C@@H](C(=O)N[C@@H]1C(=O)N2C(C(=O)O)=C(Cl)CC[C@H]12)c1ccccc1 [LORACARBEF ANHYDROUS]	0	0	0	0	1	0	0	0	1	0	0	0	0	0	
CNCCC(Oc1ccc(C(F)(F)F)cc1)c1ccccc1 (configuration not stated) [FLUOXETINE]	0	1	0	0	1	0	1	1	8	1	0	1	1	1	
CNCC(O)c1ccc(OC(=O)C(C)(C)C)c(OC(=O)C(C)(C)C)c1 (configuration not stated) [DIPIVEFRIN]	0	0	0	0	0	0	0	0	0	0	0	0	0	0	
Nc1nc(/C(=C/CC(=O)O)C(=O)N[C@@H]2C(=O)N3C(C(=O)O)=CCS[C@H]23)cs1 [CEFTIBUTEN]	0	0	0	0	1	0	0	0	1	0	0	0	0	0	
Cc1ccc(S(=O)(=O)NC(=O)NN2CC3CCCC3C2)cc1 (configuration not stated) [GLICLAZIDE]	0	1	0	0	1	0	0	0	4	1	0	0	1	0	
BLEOMYCIN	0	0	0	0	0	0	0	0	0	0	0	0	0	0	
O=C(NCC1CCCCN1)c1cc(OCC(F)(F)F)ccc1OCC(F)(F)F (configuration not stated) [FLECAINIDE]	0	1	0	0	1	0	0	0	2	0	0	0	0	0	
